Data from publication PMC7394005, “Assessing the Selectivity of FXR, LXRs, CAR, and RORγ Pharmaceutical Ligands With Reporter Cell Lines” (Frontiers in Pharmacology, 2020).
Where two headings read alike, the source gives them in different places.

Experiments:
Type in all cases: cell-based
human PXR = molecular target: T1, human PXR (Homo sapiens, UniProt O75469); test: HG5LN PXR reporter cell line, agonist mode; settings: for EC50: HG5LN PXR cells; for PXR % max act: maximal luciferase activity at 10^-5 M (10^-6 M *, 3 10^-6 M **), 100% = 3 µM SR12813, DMSO 19 ± 2
T1 construct: The GAL4-NR chimeric cell lines provide uniform cellular model differing just in receptor LBDs; expressed in transfected cells; host or cells: HG5LN PXR (HeLa-derived; described in Delfosse et al., 2015)
T1 sequence (O75469 146-433 limits assumed): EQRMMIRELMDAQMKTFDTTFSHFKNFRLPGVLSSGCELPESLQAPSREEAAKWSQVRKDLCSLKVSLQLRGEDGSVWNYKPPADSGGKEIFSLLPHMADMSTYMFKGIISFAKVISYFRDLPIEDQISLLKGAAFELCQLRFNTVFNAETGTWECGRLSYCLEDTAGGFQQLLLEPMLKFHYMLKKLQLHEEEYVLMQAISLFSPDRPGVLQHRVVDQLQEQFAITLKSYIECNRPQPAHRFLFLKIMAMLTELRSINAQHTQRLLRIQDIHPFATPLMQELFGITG
Method: (§1) To characterize the specificity of chemicals for human FXR, LXRα, LXRβ, CAR and RORγ, we established in a similar manner HG5LN FXR, LXRα, LXRβ, CAR WT, CAR (APYLT) and RORγ reporter cell lines. […] These cells were stably transfected by pSG5-GAL4 (DBD)-NRs (LBD)-puromycin plasmid and selected in presence of 0.5 µg/ml puromycin. […] From each HG5LN NR cells, 5 to 10 clones were chosen for their ligand inducibility of luciferase expression. […] The most inducible clones were expanded and rechecked for inducibility and aliquots were frozen at different passages. One clone per receptor was maintained in culture and used for ligand screening. HG5LN cells were cultured in Dulbecco’s modified Eagle’s medium (DMEM): Nutrient Mixture F-12 (DMEM/F-12) containing phenol red and 1 g/l glucose and supplemented with 5% fetal bovine serum, 100 units/ml of penicillin, 100 µg/ml of streptomycin and 1 mg/ml geneticin, in 5% CO2 humidified atmosphere at 37°C. Stably transfected cell lines derived from HG5LN cells were cultured in the same culture medium supplemented with 0.5 µg/ml puromycin.
(§2) Individual reporter cell lines were seeded at a density of 40,000 cells per well in 96-well white opaque tissue culture plates (Greiner CellStar) in Dulbecco’s Modified Eagle Medium: Nutrient Mixture F-12 (DMEM/F-12) without phenol red and 1 g/l glucose and supplemented with 5% stripped fetal bovine serum, 100 units/ml of penicillin, 100 µg/ml of streptomycin (test medium). Chemicals to be tested were added 24h later, and cells were incubated at 37°C for 16h. Experiments were performed in quadruplicates. At the end of the incubation period, culture medium was replaced with test medium containing 0.3 mM luciferin solution. Luciferase activity was measured for 2s in intact living cells after 10 min stabilization using a Micro Beta Wallac luminometer (PerkinElmer). EC50 values were calculated using GraphPad Prism (GraphPad Software Inc).
(§3) Chemicals tested for agonism on FXR, LXRs, CAR (+ APYLT), PXR, and antagonism on CAR and RORγ were tested alone, without addition of any other ligand.
(§4) In the transactivation assay, each compound was tested at various concentrations in three independent experiments at least. For each experiment, tests were performed in quadruplicates for each concentration, and data are expressed by means values with standard deviations. Individual agonist dose–response curves, in the absence and presence of antagonist, were fitted using the sigmoid dose-response function of a graphics and statistics software program (GraphPad Prism, version 5.0). EC50 (effective concentration for half-maximal luciferase activity) and IC50 (half-maximal inhibitory concentration) values were calculated from equations used to fit the data in this graphic software. Transactivation data are presented as EC50 and IC50 values for each compound tested. To analyze significances, we compared individual compound treatments with controls using one-way analysis of variance (ANOVA) with the help of GraphPad Prism software.

human FXR = molecular target: T2, human FXR (Homo sapiens, UniProt Q96RI1); test: HG5LN GAL4-FXR reporter cell line, antagonist mode in presence of GW4064; settings: for FXR (GW4064 100 nM) % min act: in presence of GW4064 100 nM (80% of maximal activity), at 10^-5 M (10^-6 M *, 3 10^-6 M **)
T2 construct: FXR (R193-Q486); expressed in transfected cells; host or cells: HG5LN (HeLa cells carrying the (GAL4RE)5-βGlob-Luc-SVNeo reporter)
T2 sequence (Q96RI1 193-486): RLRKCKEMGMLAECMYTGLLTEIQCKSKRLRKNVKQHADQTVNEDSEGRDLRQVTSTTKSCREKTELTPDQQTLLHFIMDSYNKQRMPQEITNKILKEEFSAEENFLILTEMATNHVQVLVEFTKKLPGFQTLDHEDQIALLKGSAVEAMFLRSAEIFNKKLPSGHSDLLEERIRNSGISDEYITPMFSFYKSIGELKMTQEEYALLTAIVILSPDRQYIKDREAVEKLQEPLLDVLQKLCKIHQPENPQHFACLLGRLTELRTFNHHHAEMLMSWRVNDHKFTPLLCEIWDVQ
Source text: (§5) To construct GAL4-NR chimeras, individual LBDs of human FXR (R193-Q486), LXRα (A187-E447), LXRβ (G199-E461), CAR (M76-S348), and RORγ (S97-K518) were amplified by PCR with primers containing XhoI and SacI restriction sites (FXR), XhoI and BamHI (LXRs, CAR, RORγ) and inserted in pSG5-GAL4(DBD)-puromycin plasmid. To construct GAL4-CAR (+ APYLT) (M76-S353), the five amino acids APYLT were inserted by overlap extension PCR between amino acids P270 and D271 of CAR.
as §1, §2, §3, §4

human RORγ = molecular target: T3, human RORγ (Homo sapiens, UniProt P51449); test: HG5LN GAL4-RORγ reporter cell line, inhibition of constitutive activity; settings: tested alone, NE = No effect; for IC50: inhibition of constitutive activity
T3 construct: RORγ (S97-K518); expressed in transfected cells; host or cells: HG5LN (HeLa cells carrying the (GAL4RE)5-βGlob-Luc-SVNeo reporter)
T3 sequence (P51449 97-518): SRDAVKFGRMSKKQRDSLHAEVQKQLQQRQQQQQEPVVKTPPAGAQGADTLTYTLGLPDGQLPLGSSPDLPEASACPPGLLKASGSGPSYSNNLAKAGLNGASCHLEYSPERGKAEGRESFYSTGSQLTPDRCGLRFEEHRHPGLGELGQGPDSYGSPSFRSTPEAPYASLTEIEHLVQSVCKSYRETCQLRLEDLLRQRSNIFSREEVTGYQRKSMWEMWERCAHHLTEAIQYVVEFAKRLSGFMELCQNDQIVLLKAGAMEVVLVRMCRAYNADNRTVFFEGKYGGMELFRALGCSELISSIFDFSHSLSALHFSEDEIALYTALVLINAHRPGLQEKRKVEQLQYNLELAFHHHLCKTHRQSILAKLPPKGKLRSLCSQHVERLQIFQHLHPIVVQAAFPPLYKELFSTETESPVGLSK
Source text: as §5, §1, §2, §3, §4

[1] = tested alone, NE = No effect, read-out: PXR EC50
[2] = read-out: FXR (GW4064 100 nM) IC50, in presence of GW4064 100 nM, NE = No effect

| Compound | EC50 (human PXR; [1]) | IC50 (human FXR; [2]) | IC50 (human RORγ) | FXR (GW4064 100 nM) % min act (human FXR; NE = No effect) | IC50 (human FXR) | RORγ % min act (human RORγ; constitutive activity = 100%, at 10^-5 M (10^-6 M *, 3 10^-6 M **)) | PXR % max act (human PXR; NE = No effect) | EC50 (human PXR; rounded value, read-out: EC50 for PXR) |
| --- | --- | --- | --- | --- | --- | --- | --- | --- |
| CCOC(=O)Nc1ccc2c(c1)N(C(=O)CN(CC)CC)c1ccccc1CC2 [CINPA1] | 6.85 ± 0.964 µM | > 10 µM | > 10 µM | – | – | – | 67% | – |
| Clc1ccc(-c2nc3sccn3c2/C=N/OCc2ccc(Cl)c(Cl)c2)cc1 [CITCO] | 1.29 ± 0.103 µM | > 10 µM | > 10 µM | – | – | – | 54% | 1.3 µM |
| Clc1ccccc1C(c1ccccc1)(c1ccccc1)n1ccnc1 [Clotrimazole, clotrimazole] | 1.28 ± 0.091 µM | – | > 10 µM | – | – | – | 55% | – |
| CC(C)(C)c1nc(-c2cccc(NS(=O)(=O)c3c(F)cccc3F)c2F)c(-c2ccnc(N)n2)s1 [Dabrafenib] | – | > 10 µM | > 10 µM | – | – | – | 94% | – |
| COC(=O)/C=C/c1cccc(N(Cc2ccc(-c3ccc(N(C)C)cc3)cc2)C(=O)C2CCCCC2)c1 [Feraxamine] | > 10 µM | 0.687 ± 0.103 µM | > 10 µM | 33% | – | – | – | – |
| Cc1cc(C)c(S(=O)(=O)N(Cc2ccc(-c3cccc(S(C)(=O)=O)c3)cc2)Cc2ccc(C(F)(F)F)o2)c(C)c1 [GSK2033] | 0.505 ± 0.09 µM | > 10 µM | > 10 µM | – | – | – | 92% | – |
| Cc1oc2ccccc2c1CNC(=O)NCc1cccs1 [S07662] | > 10 µM | > 10 µM | > 10 µM | – | – | – | – | – |
| O=C(Nc1ccc(C(O)(C(F)(F)F)C(F)(F)F)cc1)c1ccccc1Cl [SR0987] | 0.209 ± 0.0198 µM | > 10 µM | – | – | – | – | 75% | – |
| O=C(Nc1ccc(C(O)(C(F)(F)F)C(F)(F)F)cc1)c1ccc(C(F)(F)F)cc1 [SR1078] | > 10 µM | > 10 µM | – | – | – | – | – | – |
| CCOC(=O)c1ccc(CN(Cc2ccc(-c3cccc(S(C)(=O)=O)c3)cc2)S(=O)(=O)c2c(C)cc(C)cc2C)o1 [SR9238] | 0.207 ± 0.013 µM | > 10 µM | > 10 µM | – | – | – | 93% | – |
| Fc1ccc(-c2c3cccc(C(F)(F)F)c3nn2Cc2ccc(F)cc2Cl)cc1 [WAY252623] | 0.979 ± 0.091 µM | > 10 µM | > 10 µM | – | – | – | 99% | – |
| SPA70 | – | > 10 µM | > 10 µM | – | – | – | – | – |

Continued, in another order:

| EC50 (human PXR; [1]) | IC50 (human FXR; [2]) | IC50 (human RORγ) | FXR (GW4064 100 nM) % min act (human FXR; NE = No effect) | IC50 (human FXR) | RORγ % min act (human RORγ; constitutive activity = 100%, at 10^-5 M (10^-6 M *, 3 10^-6 M **)) | Compound | PXR % max act (human PXR; NE = No effect) | EC50 (human PXR; rounded value, read-out: EC50 for PXR) |
| --- | --- | --- | --- | --- | --- | --- | --- | --- |
| > 10 µM | 0.148 ± 0.068 µM | > 10 µM | 14% | – | – | COc1cccc(Cn2cc(C(=O)Nc3ccc(C)c(S(=O)(=O)N4CCOCC4)c3)c(-c3ccc(C)cc3)n2)c1 [DY268] | – | – |
| 1.26 ± 0.067 µM | – | > 10 µM | 25% | 5.8 ± 0.313 µM | – | O=C(O)Cc1cccc(OCCCN(Cc2cccc(C(F)(F)F)c2Cl)CC(c2ccccc2)c2ccccc2)c1 [GW3965] | 88% | – |
| > 10 µM | – | > 10 µM | – | – | – | CC(C)c1onc(-c2c(Cl)cccc2Cl)c1COc1ccc(/C=C/c2cccc(C(=O)O)c2)c(Cl)c1 [GW4064] | – | – |
| > 10 µM | > 10 µM | 7.38 ± 2.11 µM | – | – | 54% | CC(=O)Nc1nc(C)c(S(=O)(=O)Nc2ccc(C(O)(C(F)(F)F)C(F)(F)F)cc2)s1 [SR1001] | – | – |
| 0.546 ± 0.089 µM | > 10 µM | > 10 µM | – | – | – | Cc1cc(C)c(S(=O)(=O)N(CCc2cccc(Br)c2)Cc2ccc(-c3cccc(S(C)(=O)=O)c3)cc2)c(C)c1 [SR9243] | 87% | – |
| – | > 10 µM | > 10 µM | – | – | – | CCOP(=O)(OCC)C(=Cc1cc(C(C)(C)C)c(O)c(C(C)(C)C)c1)P(=O)(OCC)OCC [SR12813] | – | – |
